The source of these data is patent US4656166A, “Antibiotic compounds derived from cephalosporins, process for their production and pharmaceutical compositions” (Sanofi, priority 1983, dated 1987).

In brackets after ≈: the same amount, converted by molar mass. Some results are limits rather than exact numbers.

Assay type in all cases: cell-based
In assay [1] the test system is Klebsiella RO 30. Briefly: MIC, in vitro dilution method, Klebsiella RO 30 (Table III). The conditions noted are these: RO30; Klebsiella RO 30; dilution method; read-out: MIC. In outline:
(§1)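 Bacteriostatic activity was determined in vitro by the dilution method against Gram-negative strains. Values are minimum inhibitory concentrations in μg/ml.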

Assay [2] has as its system Citrobacter RL 49. Briefly: MIC, in vitro dilution method, Citrobacter RL 49 (Table III). Conditions: RL49; Citrobacter RL 49; dilution method; read-out: MIC. An excerpt: (§2) The products of the invention have been studied as regards their pharmacological properties and, more especially, bacteriostatic action. This has been determined in vitro by the dilution method, and the study was on Gram negative strains.
(§3) Results, expressed in minimum inhibiting concentrations (MIC-- μg/ml), are collected in the following table (Table III).

Assay [3] relates to Enterobacter RO 154. Kind of assay: MIC, in vitro dilution method, Enterobacter RO 154 (Table III). The conditions noted are these: RO154; Enterobacter RO 154; dilution method; read-out: MIC. In outline:
as §1

For assay [4], the system named is Pseudomonas RL 112. Briefly: MIC, in vitro dilution method, Pseudomonas RL 112 (Table III). The conditions noted are these: RL112. The procedure, abridged:
as §1

For assay [5], the system named is Serratia RL 72. Kind of assay: MIC, in vitro dilution method, Serratia RL 72 (Table III). The conditions noted are these: RL72.
Excerpt: as §2, §3

Assay [6] relates to Escherichia coli SOL 90. Briefly: MIC, in vitro dilution method, Escherichia coli SOL 90 (Table III). Conditions: SOL90; Escherichia coli SOL 90; dilution method; read-out: MIC. The procedure, abridged:
as §1

For assay [7], the system named is Proteus vulgaris RL 99 bis. Kind of assay: MIC, in vitro dilution method, Proteus vulgaris RL 99 bis (Table III). The conditions noted are these: RL99BIS; Proteus vulgaris RL 99 bis; dilution method; read-out: MIC.
Excerpt: as §2, §3

Consider `Nc1nc(/C(=N/OC2(C(=O)O)CCC2)C(=O)NC2C(=O)N3C(C(=O)O)=C(COC(=O)C4(N)CCCC4)C[S+]([O-])C23)cs1` (stereo not drawn) [42 210], for which the MIC was 0.5 µg/mL (≈ 0.8 µM) in assay [1]; 0.5 µg/mL (≈ 0.8 µM) in assay [2]; 0.25 µg/mL (≈ 0.4 µM) in assay [3]; 4 µg/mL (≈ 6.4 µM) in assay [4]; 1 µg/mL (≈ 1.6 µM) in assay [5]; 1 µg/mL (≈ 1.6 µM) in assay [6]. The MIC in assay [7] came out at 0.25 µg/mL (≈ 0.4 µM).

Turning to `CCNCc1ccc(C(=O)OCC2=C(C(=O)O)N3C(=O)C(NC(=O)/C(=N\OC(C)(C)C(=O)O)c4csc(N)n4)C3[S+]([O-])C2)cc1` (stereo not drawn) [42 396], the MIC is at most 0.125 µg/mL in assay [1]; at most 0.125 µg/mL in assay [2]; at most 0.125 µg/mL in assay [3]; 8 µg/mL (≈ 12.1 µM) in assay [4]; 1 µg/mL (≈ 1.51 µM) in assay [5]; at most 0.125 µg/mL in assay [6]. In assay [7], the MIC is at most 0.125 µg/mL.

`NCc1ccc(C(=O)SCC2=C(C(=O)O)N3C(=O)C(NC(=O)C(=NOC4(C(=O)O)CCC4)c4csc(N)n4)C3[S+]([O-])C2)cc1` (stereo not drawn) [compound 42222]: the MIC in assay [1] was 0.5 µg/mL (≈ 0.754 µM); in assay [2], at most 0.12 µg/mL; in assay [3], 0.5 µg/mL (≈ 0.754 µM); in assay [4] it was 8 µg/mL (≈ 12.1 µM); in assay [5] it was 1 µg/mL (≈ 1.51 µM); in assay [6], 0.5 µg/mL (≈ 0.754 µM). Further, the MIC in assay [7] was at most 0.12 µg/mL.

As to `CC(O/N=C(\C(=O)NC1C(=O)N2C(C(=O)O)=C(COC(=O)c3ccc(CN)cc3)C[S+]([O-])C12)c1csc(N)n1)C(=O)O` (stereo not drawn) [42 216], the MIC in assay [1] is at most 0.12 µg/mL; in assay [2], at most 0.12 µg/mL; in assay [3], at most 0.12 µg/mL; in assay [4], 8 µg/mL (≈ 12.9 µM); in assay [5], 0.5 µg/mL (≈ 0.806 µM); in assay [6], at most 0.12 µg/mL. Moreover, the MIC in assay [7] is at most 0.12 µg/mL.

As to `Cc1cc(C)c(C(=O)OCC2=C(C(=O)O)N3C(=O)C(NC(=O)C(=NOC4(C(=O)O)CCC4)c4csc(N)n4)C3[S+]([O-])C2)c(C)c1CN` (stereo not drawn) [42 542], the MIC in assay [1] is at most 0.25 µg/mL; in assay [2] it was 0.5 µg/mL (≈ 0.726 µM); in assay [3], 0.5 µg/mL (≈ 0.726 µM); in assay [4], 8 µg/mL (≈ 11.6 µM); in assay [5] it was 0.5 µg/mL (≈ 0.726 µM); in assay [6] it was 0.5 µg/mL (≈ 0.726 µM). Further, the MIC in assay [7] was at most 0.125 µg/mL.

Turning to `CC(C)(O/N=C(\C(=O)NC1C(=O)N2C(C(=O)O)=C(COC(=O)CC3CCCNC3)C[S+]([O-])C12)c1csc(N)n1)C(=O)O` (stereo not drawn) [42 372], the MIC in assay [1] is 0.25 µg/mL (≈ 0.399 µM); in assay [2] it was at most 0.125 µg/mL; in assay [3] it was at most 0.125 µg/mL; in assay [4], 4 µg/mL (≈ 6.38 µM); in assay [5], 0.25 µg/mL (≈ 0.399 µM); in assay [6], 0.25 µg/mL (≈ 0.399 µM). For the same compound, the MIC in assay [7] was at most 0.125 µg/mL.

On to `CC(C)(O/N=C(\C(=O)NC1C(=O)N2C(C(=O)O)=C(COC(=O)[C@@H](N)CCCCN)C[S+]([O-])C12)c1csc(N)n1)C(=O)O` (stereo partly drawn) [41 888], for which the MIC in assay [1] worked out at 1 µg/mL (≈ 1.59 µM); in assay [2], 2 µg/mL (≈ 3.18 µM); in assay [3] it was 8 µg/mL (≈ 12.7 µM); in assay [4], 8 µg/mL (≈ 12.7 µM); in assay [5] it was 8 µg/mL (≈ 12.7 µM); in assay [6], 2 µg/mL (≈ 3.18 µM). For the same compound, the MIC in assay [7] came to 1 µg/mL (≈ 1.59 µM).

For `Cc1c(CN)cccc1C(=O)SCC1=C(C(=O)O)N2C(=O)C(NC(=O)C(=NOC3(C(=O)O)CCC3)c3csc(N)n3)C2[S+]([O-])C1` (stereo not drawn) [compound 42536], the MIC in assay [1] worked out at 0.25 µg/mL (≈ 0.369 µM); in assay [2] it was 0.25 µg/mL (≈ 0.369 µM); in assay [3], 0.5 µg/mL (≈ 0.739 µM); in assay [4], 8 µg/mL (≈ 11.8 µM); in assay [5], 0.5 µg/mL (≈ 0.739 µM); in assay [6] it was 0.5 µg/mL (≈ 0.739 µM). The MIC in assay [7] was at most 0.125 µg/mL.

Regarding `CC(C)(ON=C(C(=O)NC1C(=O)N2C(C(=O)O)=C(COC(=O)CC(N)c3ccccc3)C[S+]([O-])C12)c1csc(N)n1)C(=O)O` (stereo not drawn) [42 026], the MIC worked out at 0.25 µg/mL (≈ 0.385 µM) in assay [1]; 0.25 µg/mL (≈ 0.385 µM) in assay [2]; 4 µg/mL (≈ 6.17 µM) in assay [3]; 8 µg/mL (≈ 12.3 µM) in assay [4]; 1 µg/mL (≈ 1.54 µM) in assay [5]; 0.5 µg/mL (≈ 0.771 µM) in assay [6]. Further, in assay [7], the MIC is at most 0.12 µg/mL.

What is called MIC is the smallest concentration in the dilution series that meets the test's criterion for growth inhibition.
